According to patent publication US9234006B2, “Compounds” (Novacta Biosystems Limited, priority 2011, dated 2016):
*1 amine or outer side, *2 acyl side, *3 side chain or, on linkers, in order; H or OH if unused. Where a SMILES comes first, the peptide text is derived from it. Bridges are numbered along the chain shown (N, C = ends). [ ]: non-standard residue; d: D form. The star is where a group is joined. ξ: configuration not given here. Achc(trans-4) = O=C([C@H]1CC[C@H](N[*:1])CC1)[*:2]; GABA(4S-Me) = C[C@@H](CCC(=O)[*:2])N[*:1]; Octanoyl(3-OH) = CCCCCC(O)CC(=O)*; NMeGABA = CN(CCCC(=O)[*:2])[*:1]; X8 = O=C([C@H]1CC[C@H](O)CC1)*; Thr(3ξ) = CC(O)[C@H](N)C(=O)O; X10 = O=C(CC[C@@H]1CCCN1)*; ξAoc(2) = CCCCCCC(N)C(=O)O; NH(2-ClPh) = Clc1ccccc1N*; Dab = NCC[C@H](N)C(=O)O; X12 = O=C(CCCN1CCOCC1)*; X11 = CC(C)(N)CCC(=O)*; X7 = NC1CCC(C(=O)*)CC1; X1 = CCCCCCC(O)C(=O)*; CO = O=C([*:1])[*:2]; Glycolyl = O=C(CO)*; GABA = NCCCC(=O)O; X9 = O=C(CCCCCO)*

How the values were obtained:
Test in all cases: MIC susceptibility testing, broth microdilution in CaMHB
E. coli ATCC25922 = format: cell-based, Escherichia coli; conditions: Table 4A, different batches of cation-adjusted Muller-Hinton broth
Description: (§1) To evaluate the potency and spectrum of the compounds, susceptibility testing was performed against four strains of each of the four Gram negative pathogens, Escherichia coli, Pseudomonas aeruginosa, Klebsiella pneumoniae and Acinetobacter baumannii.
(§2) The day before testing, 3 to 4 colonies were picked from fresh Mueller-Hinton Agar (MHA) plate and transferred into 10 mL of Cation adjusted MHB (CaMHB). Cultures were incubated at 37° C. 250 rpm for 18-20 hours before being diluted 100-fold in fresh CaMHB. The subcultures were grown further until the OD600 reached 0.2-0.3 corresponding to […]. The actively growing cultures were diluted 100-fold in fresh medium and used for the inoculum.
(§3) The assays were performed in duplicate.
(§4) Data was obtained under similar conditions to Table 4 except that different batches of cation-adjusted Muller-Hinton broth were used. The MIC values for these compounds are compared with those values obtained for Polymyxin B, Colistin Sulphate, CB-182,804 and NAB739 (as the TFA salt). CB-182,804 is a polymyxin decapeptide derivative with an aryl urea substituent at the N-terminus, which has been claimed to have lower toxicity than Polymyxin B (compound 5 in WO 2010/075416. See page 37). NAB739 has been described previously by Vaara et al.

P. aeruginosa ATCC27853 = format: cell-based, Pseudomonas aeruginosa; conditions: Table 4A, different batches of cation-adjusted Muller-Hinton broth
Description: as §1, §2, §3, §4

A. baumannii ATCC19606 = format: cell-based, Acinetobacter baumannii; conditions: Table 4A, different batches of cation-adjusted Muller-Hinton broth
Description: as §1, §2, §3, §4

K. pneumoniae ATCC 4352 = format: cell-based, Klebsiella pneumoniae; conditions: K. pneumoniae ATCC4352; Table 4A, different batches of cation-adjusted Muller-Hinton broth
Description: as §1, §2, §3, §4

| MIC (E. coli ATCC25922) [micrograms/mL] | MIC (P. aeruginosa ATCC27853) [micrograms/mL] | MIC (A. baumannii ATCC19606) [micrograms/mL] | MIC (K. pneumoniae ATCC 4352) [micrograms/mL] | Structure (SMILES) |
| --- | --- | --- | --- | --- |
| 32 | 0.25 | 32 | 8 | CC(C)C[C@@H]1NC(=O)[C@@H](Cc2ccccc2)NC(=O)[C@H](CCN)NC(=O)[C@@H](NC(=O)[C@H](CCN)NC(=O)[C@@H](NC(=O)CO)C(C)O)CCNC(=O)[C@H](C(C)O)NC(=O)[C@H](CCN)NC(=O)[C@H](CCN)NC1=O (stereo partly shown) [Example 16, Hydroxyacetyl polymyxin B nonapeptide] (Glycolyl-[Thr(3ξ)][Dab][Dab][Dab][dF]L[Dab][Dab][Thr(3ξ)]; lactam 3-C) |
| 8 | 2 | 4 | 8 | CCCCCC(O)CC(=O)N[C@H](C(=O)N[C@@H](CCN)C(=O)N[C@H]1CCNC(=O)[C@H](C(C)O)NC(=O)[C@H](CCN)NC(=O)[C@H](CCN)NC(=O)[C@H](CC(C)C)NC(=O)[C@@H](Cc2ccccc2)NC(=O)[C@H](CCN)NC1=O)C(C)O (stereo partly drawn) [Example 17, 3-(R,S)-3-Hydroxyoctanoyl polymyxin B nonapeptide] ({Octanoyl(3-OH)}-[Thr(3ξ)][Dab][Dab][Dab][dF]L[Dab][Dab][Thr(3ξ)]; lactam 3-C) |
| 4 | 1 | >32 | >32 | CC(C)C[C@@H]1NC(=O)[C@@H](Cc2ccccc2)NC(=O)[C@H](CCN)NC(=O)[C@@H](NC(=O)[C@H](CCN)NC(=O)[C@@H](NC(=O)CCCN2CCOCC2)C(C)O)CCNC(=O)[C@H](C(C)O)NC(=O)[C@H](CCN)NC(=O)[C@H](CCN)NC1=O (stereo partly shown) [Example 20, 4-Morpholinylbutanoyl polymyxin B nonapeptide] (X12-[Thr(3ξ)][Dab][Dab][Dab][dF]L[Dab][Dab][Thr(3ξ)]; lactam 3-C) |
| 32 | 1 | >32 | 32 | CC(C)C[C@@H]1NC(=O)[C@@H](Cc2ccccc2)NC(=O)[C@H](CCN)NC(=O)[C@@H](NC(=O)[C@H](CCN)NC(=O)[C@@H](NC(=O)CCCCCO)C(C)O)CCNC(=O)[C@H](C(C)O)NC(=O)[C@H](CCN)NC(=O)[C@H](CCN)NC1=O (stereo partly shown) [Example 21, 6-Hydroxyhexanoyl polymyxin B nonapeptide] (X9-[Thr(3ξ)][Dab][Dab][Dab][dF]L[Dab][Dab][Thr(3ξ)]; lactam 3-C) |
| 0.5 | 0.25 | 8 | 0.5 | CNCCCC(=O)N[C@H](C(=O)N[C@@H](CCN)C(=O)N[C@H]1CCNC(=O)[C@H](C(C)O)NC(=O)[C@H](CCN)NC(=O)[C@H](CCN)NC(=O)[C@H](CC(C)C)NC(=O)[C@@H](Cc2ccccc2)NC(=O)[C@H](CCN)NC1=O)C(C)O (stereo partly shown) [Example 23, 4-(N-methylamino)-butanoyl polymyxin B nonapeptide] (NMeGABA-[Thr(3ξ)][Dab][Dab][Dab][dF]L[Dab][Dab][Thr(3ξ)]; lactam 3-C) |
| 2 | 0.125 | 2 | 0.125 | CC(C)C[C@@H]1NC(=O)[C@@H](Cc2ccccc2)NC(=O)[C@H](CCN)NC(=O)[C@@H](NC(=O)[C@H](CCN)NC(=O)[C@@H](NC(=O)[C@H]2CC[C@H](N)CC2)C(C)O)CCNC(=O)[C@H](C(C)O)NC(=O)[C@H](CCN)NC(=O)[C@H](CCN)NC1=O (stereo partly drawn) [Example 24, trans-4-aminocyclohexanecarbonyl polymyxin B nonapeptide] ({Achc(trans-4)}-[Thr(3ξ)][Dab][Dab][Dab][dF]L[Dab][Dab][Thr(3ξ)]; lactam 3-C) |
| 8 | 4 | 16 | 4 | CC(C)C[C@@H]1NC(=O)[C@@H](CC(C)C)NC(=O)[C@H](CCN)NC(=O)[C@@H](NC(=O)[C@H](CCN)NC(=O)[C@@H](NC(=O)CCCN)C(C)O)CCNC(=O)[C@H](C(C)O)NC(=O)[C@H](CCN)NC(=O)[C@H](CCN)NC1=O (stereo partly drawn) [Example 25, 4-aminobutanoyl polymyxin E nonapeptide] (H-[GABA][Thr(3ξ)][Dab][Dab][Dab][dL]L[Dab][Dab][Thr(3ξ)]; lactam 4-C) |
| 8 | 4 | 16 | 8 | CCCCCCC(O)C(=O)N[C@H](C(=O)N[C@@H](CCN)C(=O)N[C@H]1CCNC(=O)[C@H](C(C)O)NC(=O)[C@H](CCN)NC(=O)[C@H](CCN)NC(=O)[C@H](CC(C)C)NC(=O)[C@@H](CC(C)C)NC(=O)[C@H](CCN)NC1=O)C(C)O (stereo partly drawn) [Example 26, 2-(R,S)-2-Hydroxyoctanoyl polymyxin E nonapeptide] (X1-[Thr(3ξ)][Dab][Dab][Dab][dL]L[Dab][Dab][Thr(3ξ)]; lactam 3-C) |
| 2 | 0.125 | 0.5 | 0.125 | CC(C)C[C@@H]1NC(=O)[C@@H](Cc2ccccc2)NC(=O)[C@H](CCN)NC(=O)[C@@H](NC(=O)[C@H](CCN)NC(=O)[C@@H](NC(=O)C2CCC(N)CC2)C(C)O)CCNC(=O)[C@H](C(C)O)NC(=O)[C@H](CCN)NC(=O)[C@H](CCN)NC1=O (stereo partly drawn) [Example 27, cis-4-aminocyclohexane carbonyl polymyxin B nonapeptide] (X7-[Thr(3ξ)][Dab][Dab][Dab][dF]L[Dab][Dab][Thr(3ξ)]; lactam 3-C) |
| 4 | <0.06 | 4 | 0.25 | CC(C)C[C@@H]1NC(=O)[C@@H](Cc2ccccc2)NC(=O)[C@H](CCN)NC(=O)[C@@H](NC(=O)[C@H](CCN)NC(=O)[C@@H](NC(=O)CCC(C)(C)N)C(C)O)CCNC(=O)[C@H](C(C)O)NC(=O)[C@H](CCN)NC(=O)[C@H](CCN)NC1=O (stereo partly shown) [Example 28, 4-Amino-4-methyl pentanoyl polymyxin B nonapeptide] (X11-[Thr(3ξ)][Dab][Dab][Dab][dF]L[Dab][Dab][Thr(3ξ)]; lactam 3-C) |
| 16 | 0.125 | 8 | 1 | CC(C)C[C@@H]1NC(=O)[C@@H](Cc2ccccc2)NC(=O)[C@H](CCN)NC(=O)[C@@H](NC(=O)[C@H](CCN)NC(=O)[C@@H](NC(=O)CC[C@@H]2CCCN2)C(C)O)CCNC(=O)[C@H](C(C)O)NC(=O)[C@H](CCN)NC(=O)[C@H](CCN)NC1=O (stereo partly drawn) [Example 30, 3-(S)-(1-pyrrolidin-2-yl)-propionyl polymyxin B nonapeptide] (X10-[Thr(3ξ)][Dab][Dab][Dab][dF]L[Dab][Dab][Thr(3ξ)]; lactam 3-C) |
| >32 | 0.25 | 8 | 0.5 | CC(C)C[C@@H]1NC(=O)[C@@H](Cc2ccccc2)NC(=O)[C@H](CCN)NC(=O)[C@@H](NC(=O)[C@H](CCN)NC(=O)[C@@H](NC(=O)CC[C@H](C)N)C(C)O)CCNC(=O)[C@H](C(C)O)NC(=O)[C@H](CCN)NC(=O)[C@H](CCN)NC1=O (stereo partly drawn) [Example 31, 4-(S)-aminopentanoyl polymyxin B nonapeptide] ({GABA(4S-Me)}-[Thr(3ξ)][Dab][Dab][Dab][dF]L[Dab][Dab][Thr(3ξ)]; lactam 3-C) |
| 8 | 0.125 | 16 | 4 | CC(C)C[C@@H]1NC(=O)[C@@H](Cc2ccccc2)NC(=O)[C@H](CCN)NC(=O)[C@@H](NC(=O)[C@H](CCN)NC(=O)[C@@H](NC(=O)[C@H]2CC[C@H](O)CC2)C(C)O)CCNC(=O)[C@H](C(C)O)NC(=O)[C@H](CCN)NC(=O)[C@H](CCN)NC1=O (stereo partly drawn) [Example 32, trans-4-hydroxycyclohexanecarbonyl polymyxin B nonapeptide] (X8-[Thr(3ξ)][Dab][Dab][Dab][dF]L[Dab][Dab][Thr(3ξ)]; lactam 3-C) |
| – | 0.25 | 2 | 1 | CCCCCCC(N)C(=O)N[C@H](C(=O)N[C@@H](CCN)C(=O)N[C@H]1CCNC(=O)[C@H](C(C)O)NC(=O)[C@H](CCN)NC(=O)[C@H](CCN)NC(=O)[C@H](CC(C)C)NC(=O)[C@@H](Cc2ccccc2)NC(=O)[C@H](CCN)NC1=O)C(C)O (stereo partly drawn) [Example 35, 2-(R,S)-2-Amino octanoyl polymyxin B nonapeptide] (H-[ξAoc(2)][Thr(3ξ)][Dab][Dab][Dab][dF]L[Dab][Dab][Thr(3ξ)]; lactam 4-C) |

| Structure (SMILES) | MIC (E. coli ATCC25922) [micrograms/mL] | MIC (P. aeruginosa ATCC27853) [micrograms/mL] | MIC (A. baumannii ATCC19606) [micrograms/mL] | MIC (K. pneumoniae ATCC 4352) [micrograms/mL] |
| --- | --- | --- | --- | --- |
| CC(C)C[C@@H]1NC(=O)[C@@H](Cc2ccccc2)NC(=O)[C@H](CCN)NC(=O)[C@@H](NC(=O)[C@H](CCN)NC(=O)[C@@H](NC(=O)[C@H](CCN)NC(=O)Nc2ccccc2Cl)[C@@H](C)O)CCNC(=O)[C@H]([C@@H](C)O)NC(=O)[C@H](CCN)NC(=O)[C@H](CCN)NC1=O [CB-182,804, reference compound] ({NH(2-ClPh)-CO}-[Dab]T[Dab][Dab][Dab][dF]L[Dab][Dab]T; lactam 4-C; N-terminus assumed) | 2 | 1 | 0.5 | – |
